From PubChem BioAssay AID651579 (Sanford-Burnham Center for Chemical Genomics, 2012)
Activity calls are given as the source filed them. How the calls were made is not given here.

What follows are compounds tested on C. elegans hsp-16.2 reporter, heat-shock counterscreen (assay: inhibitors of heat-induced hsp-16.2 expression – whole organism, C. elegans, counter-screen for SKN-1 inhibitor project, dose response (AID 651579)).
In the case of O=C(Nc1nccs1)c1ccc2ccccc2n1, the IC50 is reported as > 64 µM (inactive).
With Clc1ccc(OCc2cnc(Cl)s2)cc1 the IC50 was > 64 µM (inactive).
For CC1=NN(c2ccccc2)C(=O)/C1=C\C=C1/N(C)c2ccccc2C1(C)C, the IC50 was > 64 µM (inactive).
In the case of CCN(CC)c1ccc(/C=C2/C(=O)c3ccc(C(=O)O)cc3C2=O)cc1, the IC50 is reported as > 64 µM (inactive).
O=C(N=C1N=C2C=CC(Br)=CN2Cc2ccccc21)c1ccc([N+](=O)[O-])cc1[N+](=O)[O-] was tested, and the IC50 was > 64 µM (inactive).
With CCOC(=O)c1c(-c2ccc(-c3ccccc3)cc2)csc1NC(=O)CNCCN(C)C the IC50 was > 64 µM (inactive).
With O=C(Nc1ccc(SC(F)F)cc1)c1ccccc1F the IC50 was > 64 µM (inactive).
For Fc1ccc(Cn2nnc(-c3ccc(CN4CCOCC4)cc3)n2)cc1, the IC50 was 4.88 µM.
With CC(C)c1ccc(C(=O)Nc2ccc(CN3CCOCC3)cc2)cc1 the IC50 was > 64 µM (inactive).
In the case of O=C(c1cccs1)c1ccc(-c2cccs2)s1, the IC50 is reported as > 64 µM (inactive).
Clc1ccc(C#Cc2cccnc2)cc1 showed an IC50 of 2.57 µM.
Cc1ccc(Nc2nc(-c3cccs3)cs2)nc1 showed an IC50 of 13.6 µM.
In the case of Fc1ccc(-c2csc(-c3ccncc3)n2)cc1, the IC50 is reported as > 64 µM (inactive).
With Cc1ccc(N=C/C(C(=O)C(F)(F)F)=C(\O)c2ccco2)cc1Cl the IC50 was 37.7 µM.
With O=C(/C=C/Nc1ccccc1F)c1cccs1 the IC50 was > 64 µM (inactive).
For CCOc1cc(CNC2CCCC2)cc(Cl)c1OCc1ccc(F)cc1, the IC50 was > 64 µM (inactive).
Compound CCc1nc2c(OCc3ccc(C(F)(F)F)cc3)cccn2c1N(C)C(=O)c1ccncc1 has an IC50 of 49.9 µM.
For c1ccc(-c2csc(-c3ccncc3)n2)cc1, the IC50 was > 64 µM (inactive).
COc1ccc2c(c1)OC/C(=C/c1cccs1)C2=O was tested, and the IC50 was > 64 µM (inactive).
For O=[N+]([O-])c1ccc(COc2ccc(CN3CCCC3)cc2)cc1, the IC50 was > 64 µM (inactive).
In the case of Fc1ccc(-c2csc(Nc3ccccn3)n2)cc1, the IC50 is reported as > 64 µM (inactive).
With O=C(Nc1nc2c(ccc3ccccc32)s1)c1ccco1 the IC50 was > 64 µM (inactive).
In the case of c1ccc(Nc2nc(-c3cccs3)cs2)nc1, the IC50 is reported as > 64 µM (inactive).
For Brc1ccc2nc(N3CCCC3)sc2c1, the IC50 was > 64 µM (inactive).
For Clc1ccc(-c2nnc(-c3ccccc3)o2)c(Cl)c1, the IC50 was > 64 µM (inactive).
C(=C\c1nc(-c2ccncc2)no1)/c1ccccc1 was tested, and the IC50 was > 64 µM (inactive).
For Cc1ccc(CSc2nnc(-c3ccco3)o2)cc1, the IC50 was 30.6 µM.
With COc1ccc(C(=O)Nc2nc(-c3cccs3)cs2)cc1 the IC50 was > 64 µM (inactive).
With c1ccc2sc(SCc3ccc(-c4nnco4)cc3)nc2c1 the IC50 was > 64 µM (inactive).
With Brc1ccc2oc(-c3ccn[nH]3)cc2c1 the IC50 was > 64 µM (inactive).
With CCc1ccc(-c2nc(-c3ccncc3)no2)cc1 the IC50 was 33.5 µM.
With CCN(CC)Cc1ccc(NC(=O)c2sc3cc(Cl)ccc3c2Cl)cc1 the IC50 was > 64 µM (inactive).
CCCCOc1ccc(C(=O)OC2CC(C)N(C)CC2C)cc1 (centres undefined) was tested, and the IC50 was > 64 µM (inactive).
FCCCOc1ccc(-c2nccc(-c3ccccn3)n2)cc1 was tested, and the IC50 was > 64 µM (inactive).
For O=[N+]([O-])c1ccc2cn(-c3ccccc3)nc2c1, the IC50 was > 64 µM (inactive).
With O=[N+]([O-])c1ccc(NCc2ccc(Cl)cc2)nc1 the IC50 was > 64 µM (inactive).
O=[N+]([O-])c1ccc2nc(-c3ccccc3)oc2c1 was tested, and the IC50 was > 64 µM (inactive).
Compound O=C(Nc1ccc(CN2CCOCC2)cc1)c1cc2ccccc2o1 has an IC50 of 4.25 µM.
In the case of c1ccc(-c2nc3cc4ccccc4cc3[nH]2)nc1, the IC50 is reported as 5.91 µM.
Compound Clc1ccc2nc(-c3ccc(Br)s3)cn2c1 has an IC50 of 15.9 µM.
Cc1nc2ccccc2cc1OCc1ccc(F)cc1 was tested, and the IC50 was > 64 µM (inactive).
With Cc1c(N2C(=O)/C(=C\c3ccc(N(C)C)cc3)N(C)C2=S)c(=O)n(-c2ccccc2)n1C the IC50 was > 64 µM (inactive).
With O=C(C=Cc1ccccc1)CC(c1ccccc1)N1CCOCC1 (centres undefined) the IC50 was > 64 µM (inactive).
Work on Clc1ccc(C=Cc2ccccn2)c(Cl)c1 yielded an IC50 of 22.9 µM.
O=C(NCc1ccncc1)c1ccc(-c2ccc(F)c(F)c2)c2ccoc12 was tested, and the IC50 was > 64 µM (inactive).
For Brc1ccc(-c2nnc(-c3ccco3)o2)cc1, the IC50 was > 64 µM (inactive).
For O=C(/C=C/Nc1ccc(F)c(F)c1)c1cccs1, the IC50 was > 64 µM (inactive).
In the case of Clc1ccsc1-c1ccc2ccccc2n1, the IC50 is reported as > 64 µM (inactive).
In the case of Cc1oc(-c2ccc(-c3ccccc3)cc2)nc1CN(C)C1CCOC1 (centres undefined), the IC50 is reported as > 64 µM (inactive).
With CCOC(=O)Nc1nc(-c2ccc(F)cc2F)cs1 the IC50 was 47.7 µM.
O=c1cc(-c2ccc(F)cc2)oc2ccccc12 was tested, and the IC50 was > 64 µM (inactive).
Fc1ccc(-n2nnc(-c3cccnc3Cl)n2)cc1 was tested, and the IC50 was > 64 µM (inactive).
Fc1ccc(CSc2ncnc3ccccc23)cc1 was tested, and the IC50 was > 64 µM (inactive).
With c1ccc(-c2csc(Nc3ccccn3)n2)cc1 the IC50 was > 64 µM (inactive).
With CCOc1cc(CNCCSc2nnnn2C)cc(Br)c1OCc1ccc(F)cc1 the IC50 was > 64 µM (inactive).
In the case of CC/C(=C\c1ccc(Cl)cc1)c1ccncc1, the IC50 is reported as > 64 µM (inactive).
With CCCn1nc2cc(C(=O)NCc3ccc(OC(F)(F)F)cc3)ccc2c1OCC the IC50 was > 64 µM (inactive).
For O=C(/C=C/c1cccs1)c1ccc(Br)cc1, the IC50 was > 64 µM (inactive).
Fc1ccc(-c2cnc(-c3cccs3)o2)cc1 was tested, and the IC50 was > 64 µM (inactive).
With O=C(Nc1nc(-c2ccc(Cl)s2)cs1)c1ccco1 the IC50 was > 64 µM (inactive).
In the case of O=C(/C=C/Nc1ccc(Br)cc1F)c1ccco1, the IC50 is reported as > 64 µM (inactive).
With Clc1ccc(Cn2nnc(-c3ccccc3)n2)cc1 the IC50 was > 64 µM (inactive).
For Clc1ccc(C=Cc2ccccn2)cc1, the IC50 was > 64 µM (inactive).
With CN(C)CC(O)c1ccc(C=Cc2ccc(Cl)cc2)cc1 (centres undefined) the IC50 was > 64 µM (inactive).
In the case of Cc1ccc2nc(-c3ccc(NC(=S)NC4CC(C)(C)NC(C)(C)C4)cc3)sc2c1, the IC50 is reported as > 64 µM (inactive).
Brc1ccc(CSc2nnc(-c3cccnc3)o2)cc1 gave an IC50 of 45.4 µM.
For CCOc1ccc(-c2nc(-c3cccnc3)no2)cc1, the IC50 was > 64 µM (inactive).
For COc1cc(CNC(C)c2ccccc2)cc(Br)c1OCc1ccc(F)cc1 (centres undefined), the IC50 was > 64 µM (inactive).
With CC(C)(C)N=C1NN=C(c2ccc(Cl)cc2)CS1 the IC50 was > 64 µM (inactive).
For N=C1C=CC(=C(c2ccc(N)cc2)c2ccc(N)cc2)C=C1, the IC50 was > 64 µM (inactive).
With O=C(/C=C/c1ccc(Cl)cc1)Nc1ccc(CN2CCOCC2)cc1 the IC50 was > 64 µM (inactive).
For O=C(C=Cc1cccs1)c1ccc(Cl)s1, the IC50 was > 64 µM (inactive).
For O=[N+]([O-])c1ccc(OCc2cnc(Cl)s2)cc1, the IC50 was 42.3 µM.
Compound CSc1cccc(NC(=O)c2cccc3cccnc23)c1 has an IC50 of 46.3 µM.
In the case of Cc1ccccc1-c1noc(-c2cccs2)n1, the IC50 is reported as > 64 µM (inactive).
In the case of COc1cc(CNC(C)(C)CO)cc(Br)c1OCc1ccc(Cl)cc1, the IC50 is reported as > 64 µM (inactive).
For CN1CCN(c2ccc(NC(=O)c3ccc(Oc4ccccc4)cc3)cc2)CC1, the IC50 was > 64 µM (inactive).
With Fc1ccc(COc2ccc(-c3nnco3)cc2)c(Cl)c1 the IC50 was > 64 µM (inactive).
In the case of O=C(Nc1ccc(Cl)cn1)c1ccccc1F, the IC50 is reported as > 64 µM (inactive).
For Clc1ccccc1-c1nnc(-c2ccccc2Cl)o1, the IC50 was > 64 µM (inactive).
Work on COc1cc(CNC2CCCC2)cc(Cl)c1OCc1ccc(F)cc1 yielded an IC50 of 42.7 µM.
For O=C(/C=C/c1ccc(Br)cc1)c1ccc(NC2=NCCCS2)cc1, the IC50 was > 64 µM (inactive).
With Clc1ccc(-c2nnc(-c3ccco3)o2)cc1 the IC50 was 2.68 µM.
For Clc1ccccc1-c1nc(-c2ccncc2)no1, the IC50 was > 64 µM (inactive).
C(=C\c1nnc(-c2cccs2)o1)/c1ccccc1 was tested, and the IC50 was > 64 µM (inactive).
For CN(C)C(CNC(=O)CCc1nc2cc(Cl)ccc2n(Cc2ccccc2)c1=O)c1ccccc1 (centres undefined), the IC50 was > 64 µM (inactive).
In the case of CCc1ccc(C(=O)Nc2ccc3nc(C)ccc3c2)cc1, the IC50 is reported as > 64 µM (inactive).
For O=C(Nc1ccc(OC(F)F)c(Cl)c1)c1ccccn1, the IC50 was > 64 µM (inactive).
In the case of Fc1ccc(COc2ccc(-c3nnco3)cc2)cc1, the IC50 is reported as > 64 µM (inactive).
CCOc1cc(CNC2CCCC2)cc(Cl)c1OCc1ccccc1 was tested, and the IC50 was > 64 µM (inactive).
In the case of O=C(CC(O)(C(F)(F)F)C(F)(F)F)Nc1ccc(Cl)c(Cl)c1, the IC50 is reported as > 64 µM (inactive).
With Cn1c(=O)c2c(-c3ccccc3)n(-c3ccc(N)cc3)cc2n(C)c1=O the IC50 was 3.62 µM.
c1ccc(-c2ccc(-n3ccnc3)cc2)cc1 showed an IC50 of 48.4 µM.
For CSc1ccc(-c2cc(=O)c3ccccc3o2)cc1, the IC50 was > 64 µM (inactive).
With Brc1ccc(CSc2nnc(-c3ccco3)o2)cc1 the IC50 was > 64 µM (inactive).
For CCN(CC)c1ccc(/C=C2\C(=O)c3ccc(C(=O)O)cc3C2=O)cc1, the IC50 was > 64 µM (inactive).
In the case of O=C(Nc1nc(-c2ccc(Cl)s2)cs1)c1cccs1, the IC50 is reported as > 64 µM (inactive).
With C=CCSc1ncc(-c2ccccc2)cn1 the IC50 was > 64 µM (inactive).
In the case of O=C(Nc1nccs1)c1ccc2ccccc2c1, the IC50 is reported as > 64 µM (inactive).
Compound O=C(Nc1nc(-c2ccc(Cl)s2)cs1)c1ccccc1 has an IC50 of 22.6 µM.
Clc1ccc(OCCCc2nc(-c3ccncc3)no2)c(Cl)c1 was tested, and the IC50 was > 64 µM (inactive).
For Cc1ccc(-c2noc(-c3cccs3)n2)cc1, the IC50 was > 64 µM (inactive).
In the case of Brc1ccc(-c2nc(-c3ccccc3)no2)o1, the IC50 is reported as > 64 µM (inactive).
For O=C(/C=C/Nc1ccc(F)cc1F)c1cccs1, the IC50 was 21.4 µM.
